Holding throughout (assay type): cell-based
Assay [1] deals with Streptococcus faecalis (501). The assay is described as follows: MIC in broth, Gram+ strains. The note with it: Enterococcus faecalis; S. faecalis (501), Mueller-Hinton broth, 37° C., 18 hours; read-out: Minimal Inhibitory Concentration (MIC). As to the method:
(§1) Evaluation of the Minimal Inhibitory Concentration (MIC) in broth of 15 new substances for Gram+ bacterial strains.
(§2) The following strains were used: Staphylococcus aureus (4); Streptococcus faecalis (8); Bacillus pumilus (1); Bacillus subtilis (1).
(§3) MICs were determined by a standard microdilution test, using serial two-fold dilutions of the substances in Mueller-Hinton broth.
(§4) The inoculum was prepared from an overnight culture in Mueller-Hinton broth matching the 0.5 Mc Farland (turbidity) standard (BRAY W. E., Clinical Laboratory Methods, 5th Ed. C. V. MOSBY, St. Louis, Mo. 1957), and was adjusted to a final concentration of 5.0×10^4 colony-forming units/ml.
(§5) Equal volumes (0.1 ml) of both bacterial suspensions and substance solutions were distributed in microtiter plates (Falcon, 96 wells, round bottom), and then placed in a humidified incubator (37° C.) for 18 hours.
(§6) The results, in terms of MIC values, resistant strain number and mean MIC values versus susceptible strains, are illustrated in Tables 1-6.

The test system of assay [2] is Streptococcus faecalis (509). The assay is described as follows: MIC in broth, Gram+ strains. The note with it: Enterococcus faecalis; S. faecalis (509), Mueller-Hinton broth, 37° C., 18 hours; read-out: Minimal Inhibitory Concentration (MIC). Here is the method:
as §1, §2, §3, §4, §5, §6

In assay [3] the test system is Staphylococcus aureus (303). The assay is described as follows: MIC in broth, Gram+ strains. Conditions: S. aureus (303), Mueller-Hinton broth, 37° C., 18 hours, read-out: Minimal Inhibitory Concentration (MIC). Here is the method:
as §1, §2, §3, §4, §5, §6

The subject of assay [4] is Bacillus pumilus (CN 607). The assay can be described thus: MIC in broth, Gram+ strains. Conditions: B. pumilus (CN 607), Mueller-Hinton broth, 37° C., 18 hours, read-out: Minimal Inhibitory Concentration (MIC). Here is the method: as §1, §2, §3, §4, §5, §6
In assay [5] the test system is Staphylococcus aureus (306 MR). The assay is described as follows: MIC in broth, Gram+ strains. The note with it: S. aureus (306 MR), Mueller-Hinton broth, 37° C., 18 hours, read-out: Minimal Inhibitory Concentration (MIC). Here is the method:
as §1, §2, §3, §4, §5, §6

In another assay the test system is Gram+ bacterial strains. The assay is described as follows: Mean MIC in broth and resistant strain number, Gram+ strains. Conditions: 18 h, versus susceptible strains. Here is the method: as §1, §2, §3, §4, §5, §6
The next assay concerns Gram- bacterial strains. The assay can be described thus: Mean MIC in broth and resistant strain number, Gram- strains. The note with it: 18 h, read-out: Mean MIC values. As to the method:
as §3, §4, §5
(§7) Evaluation of the Minimal Inhibitory Concentration (MIC) in broth of 16 new substances for Gram- bacterial strains.
(§8) The following strains were used: Enterobacter (1), Escherichia (3), Klebsiella (3), Proteus (3); Pseudomonas (2); Salmonella (2), Serratia (1).

Assay [6] concerns Enterobacter aerogenes (UM). The assay is described as follows: MIC in broth, Gram- strains. The note with it: Klebsiella aerogenes, 18 h, read-out: Minimal Inhibitory Concentration (MIC). As to the method: as §3, §4, §5, §7, §8
For another assay, the system named is Proteus vulgaris (UM). The assay is described as follows: MIC in broth, Gram- strains. The note with it: 18 h, read-out: Minimal Inhibitory Concentration (MIC). Here is the method:
as §3, §4, §5, §7, §8

A further assay deals with Escherichia coli (92 F). The assay is described as follows: MIC in broth, Gram- strains. Conditions: 18 h, E. coli (92 F), read-out: Minimal Inhibitory Concentration (MIC). Here is the method:
as §3, §4, §5, §7, §8

Another assay relates to Klebsiella oxytoca (552). The assay can be described thus: MIC in broth, Gram- strains. The note with it: 18 h, read-out: Minimal Inhibitory Concentration (MIC). Here is the method: as §3, §4, §5, §7, §8
The subject of assay [7] is Pseudomonas aeruginosa (3 E). The assay can be described thus: MIC in broth, Gram- strains. Conditions: 18 h, read-out: Minimal Inhibitory Concentration (MIC). As to the method: as §3, §4, §5, §7, §8
Assay [8] concerns Bacillus subtilis (ATCC 6051). The assay can be described thus: MIC in broth, Gram+ strains. Conditions: ATCC6051, B. subtilis (ATCC 6051), Mueller-Hinton broth, 37° C., 18 hours, read-out: Minimal Inhibitory Concentration (MIC). Here is the method: as §1, §2, §3, §4, §5, §6

The structures appear in SMILES notation. Bounds are passed on as bounds.

Here are results for 4 molecules from patent US5498632A, “Esters of acyl carnitines with long-chain aliphatic alcohols and pharmaceutical compositions containing same having antibacterial activity” (Sigma-Tau Industrie Farmaceutiche Riunite S.p.A., priority 1992, dated 1996).

Turning to `CCCCCCCCCCCCCOC(=O)CC(C[N+](C)(C)C)OC(=O)C(C)CCCC` (stereo not shown) [ST 1051], the MIC in assay [1] turned out to be 6.25 µg/mL; in assay [2] it was 6.25 µg/mL; in assay [3] it was 6.25 µg/mL; in assay [4], 1.56 µg/mL; in assay [5] it was 12.5 µg/mL; with Gram+ bacterial strains, 6.56 µg/mL. The MIC (with Gram- bacterial strains; in assay [6]; in the assay with Proteus vulgaris (UM); in the assay on Escherichia coli (92 F); in the assay with Klebsiella oxytoca (552); in assay [7]) was greater than 100 µg/mL throughout.
As to `CCCCCCCCCCCCCOC(=O)CC(C[N+](C)(C)C)OC(=O)CCCCC` (stereo not shown) [ST 1052], the MIC in assay [1] turned out to be 3.12 µg/mL; in [2] it was 1.56 µg/mL; in [8], 3.12 µg/mL; in assay [3], 3.12 µg/mL; in assay [4], 1.56 µg/mL; in assay [5] it was 3.12 µg/mL. The MIC is 2.49 µg/mL against Gram+ bacterial strains; greater than 100 µg/mL in the assay on Gram- bacterial strains; greater than 100 µg/mL in assay [6]; greater than 100 µg/mL with Proteus vulgaris (UM); greater than 100 µg/mL in the assay with Escherichia coli (92 F); greater than 100 µg/mL in the assay on Klebsiella oxytoca (552). Further, the MIC in assay [7] was greater than 100 µg/mL.
In the case of `CCCCCCCCCCCCCOC(=O)CC(C[N+](C)(C)C)OC(=O)CCCCCCC` (stereo not shown) [ST 1053], the MIC in assay [1] is 6.25 µg/mL; in assay [2] it was 1.56 µg/mL; in [3] it was 6.25 µg/mL; in [4], 1.56 µg/mL; in assay [5], 6.25 µg/mL; against Gram+ bacterial strains it was 4.37 µg/mL. For the same molecule, the MIC (in the assay on Gram- bacterial strains; in assay [6]; in the assay on Proteus vulgaris (UM); in the assay on Escherichia coli (92 F); in the assay on Klebsiella oxytoca (552); in assay [7]) was greater than 100 µg/mL each time.
Consider `CCCCCCCCCCCCCOC(=O)CC(C[N+](C)(C)C)OC(=O)CCCCCC` (stereo not shown) [ST 1050], for which the MIC was found to be 3.12 µg/mL in assay [1]; 3.12 µg/mL in [2]; 6.25 µg/mL in [3]; 1.56 µg/mL in [4]; 6.25 µg/mL in assay [5]; 4.06 µg/mL in the assay with Gram+ bacterial strains. Moreover, the MIC (with Gram- bacterial strains; in assay [6]; in the assay with Proteus vulgaris (UM); in the assay with Escherichia coli (92 F); with Klebsiella oxytoca (552); in [7]) was greater than 100 µg/mL throughout.
